In patent US10906905B2, “Five-membered heteroaryl ring bridged ring derivative, preparation method therefor and medical use thereof” (Jiangsu Hengrui Medicine Co., Ltd., priority 2016, dated 2021):

What was measured:
p38α kinase = p38α kinase (Homo sapiens (Human), UniProt Q16539); assay: Inhibition of p38α kinase activity (p38α kinase assay kit, ADP-Glo); format: biochemical; conditions: ATP 50 μM; read-out: IC50 of inhibition effect on p38α kinase activity
Method: The inhibition of p38α kinase activity in vitro was determined by the following method.
The inhibition effect of the compounds of the present invention on p38a kinase activity was determined by the following experimental method:
p38α kinase assay kit (V9591, Promega) was used to assay enzyme activity. 2 μl of enzyme solution (the final concentration of enzyme in the reaction system was 0.5 ng/μL) formulated with reaction buffer (40 mM Tris pH 7.5, 20 mM MgCl2, 0.1 mg/ml BSA), 1 μl of a 3-fold gradient dilution of the compounds dissolved in 5% DMSO, and 2 μl of a mixed solution of ATP and p38 substrate peptide (the final concentration of ATP was 50 μM, and the final concentration of substrate was 0.2 μg/μL) were added successively to a 384-well plate (4514, Corning). After reaction at 27° C. for 2.5 hours, 5 μl of ADP-Glo solution in the kit was added to each well, then the plate was placed at 27° C. for 40 minutes. 10 μl of kinase assay reagent was then added to each well, then the plate was placed at 27° C. for 30 minutes. The chemiluminescence signal values were measured with a Victor 3 (PerkinElmer) multi-function microplate reader. The IC50 values of the compounds on enzyme inhibition were calculated using Graphpad prism software based on each concentration of the compound and the corresponding signal value thereof.

NIH3T3 cell = assay: Inhibition of NIH3T3 cell proliferation (CellTiter-Glo); format: cell-based; conditions: Mus musculus, 72 hours, 0.5% FBS
Method: The inhibition effect of the compounds of the present invention on NIH3T3 cell proliferation was determined by the following in vitro test.
The inhibition effect of the compounds of the present invention on NIH3T3 cell proliferation was determined by the following experimental method:
On a 96-well white plate with transparent bottom (3903, Corning), 100 μL of NIH3T3 cell (GNM6, Cell Bank of Typical Culture Collection Committee of Chinese Academy of Sciences) was seeded in a DMEM medium containing 10% FBS in each well. The seeding density is 2000 cells/well. The cells were incubated overnight at 37° C., 5% CO2. After overnight incubation, each well was replaced with 90 μL of DMEM medium containing 0.5% FBS. 10 μl of a 3-fold gradient dilution of the compounds with DMEM medium containing 0.5% FBS was then added, and the plate was incubated for 72 hours in a cell incubator at 37° C., 5% CO2. Finally, 50 μL of CellTiter-Glo (G7573, Promega) was added to each well. After incubation for 10 minutes at room temperature, the chemiluminescence signal values were measured with a Victor 3 microplate reader (PerkinElmer). The IC50 values of the compounds were calculated using Graphpad Prism software based on each concentration of the compound and the corresponding signal value thereof.

TGFβRI kinase ALK5 = TGFβRI kinase ALK5 (Homo sapiens (Human), UniProt P36897); assay: Inhibition of TGFβRI kinase ALK5 activity (TGFβRI kinase assay kit, ADP-Glo); format: biochemical; conditions: ATP 50 μM; read-out: IC50 of inhibition effect on TGFβRI kinase ALK5 activity
In short: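 Kinase reaction: 2 ng/μL enzyme in Tris pH 7.5, MgCl2, BSA buffer with 50 μM ATP and 0.2 μg/μL substrate peptide, 2.5 h at 27 °C. ADP formation read by ADP-Glo luminescence over 3-fold compound dilutions; IC50 calculated from signal versus concentration.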

[1] = Pharmacokinetics assay in rats after intragastrical administration; format: in vivo; conditions: both sexes, Sprague-Dawley, rat, plasma, po, SD rats, 2 mg/kg; for Vd/F: read-out: Apparent distribution volume Vz/F; for AUC: read-out: Area under curve AUC; for CL/F: read-out: Clearance CLz/F; for half-life: read-out: Half-life T1/2 (converted); for Cmax: read-out: Plasma concentration Cmax; for MRT: read-out: Residence time MRT
Method: Rats were used as test animals. The drug concentration in plasma at different time points was determined by LC/MS/MS method after intragastrical administration of the compounds of Examples 1-1, 1-2, 2-1, 3-1, the compound with retention time of 6.631 minutes among Examples 9-1 and 9-2, and the compounds of Examples 33 and 39-1 to rats. The pharmacokinetic behavior of the compounds of the present invention was studied and evaluated in rats.
Compounds of Examples 1-1, 1-2, 2-1, 3-1, compound with retention time of 6.631 minutes among Examples 9-1 and 9-2, and compounds of Examples 33 and 39-1.
Twenty-eight healthy adult Sprague-Dawley (SD) rats (half male and half female) were purchased from SINO-BRITISH SIPPR/BK LAB. ANIMAL LTD., CO, with Certificate No.: SCXK (Shanghai) 2008-0016, and equally divided into 7 groups (4 rats per group).
A certain amount of the test compound was weighed, and added with 5% by volume of DMSO, 5% by volume of Tween 80, and 90% by volume of physiological saline were added to prepare a 0.2 mg/mL colorless, clear and transparent solution.
After an overnight fast, SD rats were administered intragastrically the test compounds at an administration dosage of 2.0 mg/kg and an administration volume of 10.0 mL/kg.
The rats were intragastrically administered the compounds of Examples 1-1, 1-2, 2-1, 3-1, the compound with retention time of 6.631 minutes among Examples 9-1 and 9-2, and the compounds of Examples 33 and 39-1.0.2 mL of blood was taken from the orbital sinus before administration and at 0.5, 1.0, 2.0, 4.0, 6.0, 8.0, 11.0 and 24.0 hours after administration. The samples were stored in heparinized tubes, and centrifuged for 10 minutes at 4° C. at 3,500 rpm to separate the blood plasma. The plasma samples were stored at −20° C. The rats were fed 2 hours after administration.
The content of the test compounds in the plasma of rats after intragastrical administration of the test compounds at different concentrations was determined: 25 μL of rat plasma at each time after administration was taken, added with 50 μL (100 ng/mL) of the internal standard solution of camptothecin and 175 μL of acetonitrile, shaken vertically for 5 minutes, and centrifuged for 10 minutes (4000 rpm). 3.0 μL of the supernatant was taken from the plasma samples for LC/MS/MS analysis.

Chain of p38α kinase (Q16539 whole entry): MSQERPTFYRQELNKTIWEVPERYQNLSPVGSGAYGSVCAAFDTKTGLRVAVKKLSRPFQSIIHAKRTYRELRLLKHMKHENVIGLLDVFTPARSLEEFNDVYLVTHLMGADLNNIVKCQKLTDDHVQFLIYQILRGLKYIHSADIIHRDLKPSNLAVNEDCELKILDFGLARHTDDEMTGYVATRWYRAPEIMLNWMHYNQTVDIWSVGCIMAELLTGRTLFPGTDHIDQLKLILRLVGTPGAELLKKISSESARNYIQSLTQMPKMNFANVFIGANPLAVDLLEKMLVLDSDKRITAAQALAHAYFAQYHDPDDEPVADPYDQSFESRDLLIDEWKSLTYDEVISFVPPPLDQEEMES
Chain of TGFβRI kinase ALK5 (P36897 34-503): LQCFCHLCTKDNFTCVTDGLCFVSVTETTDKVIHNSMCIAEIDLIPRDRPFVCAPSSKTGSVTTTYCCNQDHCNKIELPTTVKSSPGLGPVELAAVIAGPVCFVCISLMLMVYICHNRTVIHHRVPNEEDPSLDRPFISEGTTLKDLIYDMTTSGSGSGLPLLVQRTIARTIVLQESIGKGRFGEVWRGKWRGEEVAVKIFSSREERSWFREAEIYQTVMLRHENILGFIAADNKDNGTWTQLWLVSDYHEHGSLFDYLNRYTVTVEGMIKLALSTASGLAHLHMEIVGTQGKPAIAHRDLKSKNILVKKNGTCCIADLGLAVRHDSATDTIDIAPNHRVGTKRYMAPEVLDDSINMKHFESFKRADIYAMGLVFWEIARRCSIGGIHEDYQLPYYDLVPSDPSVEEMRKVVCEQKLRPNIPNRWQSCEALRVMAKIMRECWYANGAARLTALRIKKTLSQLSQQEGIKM

Row | Structure (SMILES) | IC50 (p38α kinase) | IC50 (NIH3T3 cell) | IC50 (TGFβRI kinase ALK5) | Vd/F [1] | AUC [1] | CL/F [1] | half-life [1] | Cmax [1] | MRT [1]
1 | Cc1cccc(-c2nc3n(c2-c2ccc4nccc(C(N)=O)c4c2)[C@H]2CC[C@@H]3C2)n1 [Example 1-1, 6-((5S,8R)-2-(6-Methylpyridin-2-yl)-5,6,7,8-tetrahydro-5,8-methanoimidazo[1,2-a]pyridin-3-yl)quinoline-4-carboxamide] | 618 nM | 89 nM | 9 nM | 23.5 ± 19.4 L/kg | 637 ± 355 ng·h/mL | 68.6 ± 39.2 mL/min/kg | 3.42 ± 1.29 h | 208 ± 61 ng/mL | 3.88 ± 0.26 h
2 | NC(=O)c1ccnc2ccc(-c3c(-c4ccc(F)cn4)nc4n3[C@H]3CC[C@@H]4C3)cc12 [Example 39-1, 6-((5S,8R)-2-(5-Fluoropyridin-2-yl)-5,6,7,8-tetrahydro-5,8-methanoimidazo[1,2-a]pyridin-3-yl)quinoline-4-carboxamide] | 4730 nM | 88 nM | 26 nM | 18.3 ± 17.4 L/kg | 689 ± 609 ng·h/mL | 121 ± 116 mL/min/kg | 2.06 ± 0.86 h | 317 ± 269 ng/mL | 2.44 ± 1.16 h
3 | Cc1cccc(-c2nc3n(c2-c2ccc4nnc(C(N)=O)n4c2)[C@H]2CC[C@@H]3C2)n1 [Example 2-1, 6-((5S,8R)-2-(6-Methylpyridin-2-yl)-5,6,7,8-tetrahydro-5,8-methanoimidazo[1,2-a]pyridin-3-yl)[1,2,4]triazolo[4,3-a]pyridine-3-carboxamide] | 1710 nM | 44 nM | 3 nM | 7.8 ± 1.33 L/kg | 664 ± 93 ng·h/mL | 50.8 ± 7.2 mL/min/kg | 1.77 ± 0.2 h | 351 ± 52 ng/mL | 2.3 ± 0.37 h
4 | Cc1cccc(-c2nc3n(c2-c2ccnc(-c4ccc(S(C)(=O)=O)cc4)c2)[C@H]2CC[C@@H]3C2)n1 [Example 3-1, (5S,8R)-2-(6-Methylpyridin-2-yl)-3-(2-(4-(methylsulfonyl)phenyl)pyridin-4-yl)-5,6,7,8-tetrahydro-5,8-methanoimidazo[1,2-a]pyridine] | 686 nM | 28 nM | 4 nM | 3.3 ± 1.1 L/kg | 800 ± 208 ng·h/mL | 43.4 ± 10.4 mL/min/kg | 0.868 ± 0.1 h | 502 ± 128 ng/mL | 1.43 ± 0.06 h
